Patent US9365540B2, “Benzimidazole derivatives as MCH receptor antagonists” (Takeda Pharmaceutical Company Limited, priority 2012, dated 2016)

Legend:
human MCHR1 = target: T1, human MCHR1 (Homo sapiens, UniProt Q99705); experiment: MCH receptor 1 antagonistic activity, Ca2+ mobilization assay; assay type: cell-based; settings: CHO, test compound 0.1 μM; human MCHR1-expressing CHO cells (clone #4); ligand MCH(4-19) 2 nM; read-out: Inhibitory rate % (0.1 μM)
T1 construct: expressed in transfected cells; host or cells: CHO dhfr- cells, clone #4
T1 sequence (Q99705 whole entry): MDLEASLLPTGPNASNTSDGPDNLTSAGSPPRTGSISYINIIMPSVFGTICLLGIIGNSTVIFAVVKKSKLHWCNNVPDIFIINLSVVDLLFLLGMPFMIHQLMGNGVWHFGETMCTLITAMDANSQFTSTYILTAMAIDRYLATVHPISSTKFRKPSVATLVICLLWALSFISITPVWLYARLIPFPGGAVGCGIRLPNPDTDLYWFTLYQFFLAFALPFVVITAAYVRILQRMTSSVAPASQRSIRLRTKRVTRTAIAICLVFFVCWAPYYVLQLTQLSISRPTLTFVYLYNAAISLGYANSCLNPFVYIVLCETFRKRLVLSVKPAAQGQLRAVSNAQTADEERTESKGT
Method in brief: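 CHO dhfr− cells stably expressing human MCHR1 (clone #4) were used in a fluorometric Ca2+ mobilization assay. Test compounds were run at 0.1 μM, with antagonism expressed as percent inhibition.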

HERG = target: T2, HERG (Homo sapiens, UniProt Q12809); experiment: HERG inhibitory activity, whole-cell patch clamp; assay type: cell-based; settings: 10 μM test compound; HERG.T.HEK cells; peak tail current
T2 construct: host or cells: HERG.T.HEK (HEK cells, G418 selection)
T2 sequence (Q12809 whole entry): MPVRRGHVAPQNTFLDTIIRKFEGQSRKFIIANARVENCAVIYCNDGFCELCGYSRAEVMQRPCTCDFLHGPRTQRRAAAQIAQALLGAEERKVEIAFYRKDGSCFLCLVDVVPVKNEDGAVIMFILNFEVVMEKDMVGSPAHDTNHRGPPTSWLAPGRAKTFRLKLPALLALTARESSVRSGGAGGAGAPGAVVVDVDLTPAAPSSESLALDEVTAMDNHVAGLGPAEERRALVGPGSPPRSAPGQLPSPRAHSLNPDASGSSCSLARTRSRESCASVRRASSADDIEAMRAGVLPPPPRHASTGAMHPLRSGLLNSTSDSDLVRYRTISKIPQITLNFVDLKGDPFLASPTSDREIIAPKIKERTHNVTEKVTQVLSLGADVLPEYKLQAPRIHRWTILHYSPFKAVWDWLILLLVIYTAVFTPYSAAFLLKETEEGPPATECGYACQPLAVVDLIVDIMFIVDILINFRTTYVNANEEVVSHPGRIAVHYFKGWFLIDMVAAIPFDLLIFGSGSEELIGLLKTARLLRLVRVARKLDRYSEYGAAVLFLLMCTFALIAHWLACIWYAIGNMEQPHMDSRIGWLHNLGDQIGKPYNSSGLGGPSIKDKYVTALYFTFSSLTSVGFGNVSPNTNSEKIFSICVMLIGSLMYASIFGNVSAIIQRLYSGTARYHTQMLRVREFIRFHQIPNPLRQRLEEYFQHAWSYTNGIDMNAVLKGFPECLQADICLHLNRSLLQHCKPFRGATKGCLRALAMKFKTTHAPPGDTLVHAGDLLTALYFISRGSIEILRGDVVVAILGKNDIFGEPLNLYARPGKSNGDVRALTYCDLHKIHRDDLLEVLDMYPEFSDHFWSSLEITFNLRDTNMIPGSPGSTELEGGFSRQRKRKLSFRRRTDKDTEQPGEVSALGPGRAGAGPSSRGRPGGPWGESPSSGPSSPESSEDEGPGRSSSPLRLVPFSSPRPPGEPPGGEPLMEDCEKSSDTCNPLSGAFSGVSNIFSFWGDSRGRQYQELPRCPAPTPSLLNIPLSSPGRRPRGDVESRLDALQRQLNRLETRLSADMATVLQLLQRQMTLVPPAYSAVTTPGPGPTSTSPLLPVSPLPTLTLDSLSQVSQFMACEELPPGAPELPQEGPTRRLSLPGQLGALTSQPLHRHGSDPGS
Excerpt: Evaluation of HERG Inhibitory Activity
MEM medium, MEM nonessential amino acid solution, sodium pyruvate solution and G418 sulfate solution (Geneticin) were purchased from Invitrogen Corporation (Carlsbad, Calif.). Bovine serum albumin (BSA, Fatty Acid Free) was a product of Wako Pure Chemical Industries, Ltd. (Osaka, Japan). Fetal calf serum (FCS) was a product of Trau Scientific Ltd. (Melbourne, Australia).
As HERG-expressing cell HERG.T.HEK, the cell obtained from Wisconsin ALUMNI Research Foundation was used. HERG.T.HEK was maintained and passaged at 37° C. in the presence of 5% CO2 using an MEM medium containing 10% FCS, 1 mM MEM nonessential amino acid, 1 mM sodium pyruvate and 500 μg/ml Geneticin.
80-90% confluent cells were collected by a trypsin treatment and plated on an IVF dish (Falcon, Franklin Lakes, N.J.). […] A preliminary stimulation was applied and the HERG electric current value (peak tail current) was measured when the electric current waveform was stabilized.
For measurement of the HERG electric current with addition of the test compound, the cells were first perfused with the extracellular fluid and, when the waveform was stabilized, the cells were perfused with an extracellular fluid containing 10 μM of a test compound. When the electric current waveform was stabilized under respective perfuse conditions, the HERG electric current was measured.
The HERG electric current inhibitory rate (%) of the test compound was calculated with the HERG electric current value without addition of the test compound as 100%.

[1] = test system: male diet-induced obese F344/Jcl rats; experiment: Anorectic effect in male diet-induced obese F344/Jcl rats; assay type: in vivo, rat; settings: Rattus norvegicus, po, 48 h, 5 mg/mL suspension at 2 mL/kg, two administrations, food intake for 2 days vs control group, read-out: Food intake suppression rate (%)
Procedure: Evaluation of Anorectic Effect Using Male Diet-Induced Obese F344/Jcl Rats
Male diet-induced obese F344/Jcl rats (44-50 weeks old) fed with a high-fat diet (D12451: Research Diets) from 5 weeks old were used. From before the start of experiment, the rats were singly housed, given a powder high-fat diet (D12451M: Research Diets), and habituated to oral administration with tap water. The food intake from the evening of the day before the start of experiment to the next morning was measured, and the rats were grouped based on both the food intake and the body weight of the previous day. In the evening of the day of the start of experiment and the next day, 0.5% methylcellulose solution was orally administered to the control group, and 0.5% methylcellulose suspension (5 mg/mL) of the test compound was orally administered to the compound administration group at 2 mL/kg (6 per group for both control group and compound administration group). The food intake for 2 days from the initial administration was measured. The food intake inhibition rate of each compound administration group to the control group was calculated.

| inhibition at 0.1 µM (human MCHR1) [%] | Structure (SMILES) | HERG inhibitory action (%) (HERG) | inhibition in vivo at 5000 µg/mL, 10 mg/kg [1] [%] |
| --- | --- | --- | --- |
| 99 | Cn1c(C2CC2)nc2ccc(-n3ccc(OCc4ccc(F)cc4)cc3=O)cc21 [Example 2, 1-(2-Cyclopropyl-1-methyl-1H-benzimidazol-6-yl)-4-((4-fluorobenzyl)oxy)pyridin-2(1H)-one] | 27.3 | 27.8 |
| 100 | CCc1nc2ccc(-n3ccc(OCc4ccc(F)cc4)cc3=O)cc2n1C [Example 63, 1-(2-Ethyl-1-methyl-1H-benzimidazol-6-yl)-4-((4-fluorobenzyl)oxy)pyridin-2(1H)-one] | 23.0 | 45.5 |
| 95 | Cc1nc2ccc(-n3ccc(OCc4ccc(F)cc4)cc3=O)cc2n1C [Example 254, 1-(1,2-Dimethyl-1H-benzimidazol-6-yl)-4-((4-fluorobenzyl)oxy)pyridin-2(1H)-one] | 26.4 | 38.7 |
